Experimental data from patent US10350168B2, “Dermal delivery compositions comprising active agent-calcium phosphate particle complexes and methods of using the same” (Laboratory Skin Care, Inc., priority 2009, dated 2019).
“And” between values parts separate entries of the source, which are not always exact repeats. Identical values can stand only once. Each block holds one compound with its values, some of them ahead of it.

Legend:
[1] = Optimum pH for producing active agent-calcium phosphate complexes; format: physicochemical
Description: In the following tables, the specific solvent systems are examples of solvent systems that may be used.

[2] = Influence of solvent on binding of Adapalene to calcium phosphate particles (UV 319 nm); format: physicochemical
Experimental: (§1) • Calcium phosphate particles • Adapalene, Sekhsaria Chemicals Limited, India • DMSO, Fisher Scientific, Product No. D159-4 • Ethanol, Fisher Scientific, Product No. AC61511-0010 Methods: • i. […] The suspensions were mixed for 30 min, and centrifuged at 2000×g for 10 min in a bench top centrifuge. • iv. The absorbance of supernatants were measured at 319 nm (the detection wavelength for Adapalene) by UV spectrophotometer. • v. […]

[3] = Adapalene saturated solutions in ethanol and DMSO; format: physicochemical
Experimental: as §1

[4] = Stability (activity) of ascorbic acid at 50° C. with and without calcium phosphate particles; format: physicochemical; conditions: for activity of ascorbic acid, 2 um: bound to 2 μm calcium phosphate particles; for activity of ascorbic acid, Control: without calcium phosphate particles
Experimental: 11.9 mg of ascorbic acid was dissolved in 30 ml of water. 2 g of 2 μm calcium phosphate particles were suspended in 19.5 ml of water and the pH was adjusted to pH 7.14 with HCl. 0.5 ml of ascorbic acid solution (0.40 mg/ml) was mixed in the suspension of calcium phosphate particles, which reduced the pH to 7.05. The suspension (pH 7.05) of calcium phosphate particles including 10 μg/ml of ascorbic acid was incubated at 50° C. for 0.5 to 5 hours. The heat-denaturation of ascorbic acid was terminated by cooling the suspension in an ice bath for 15 minutes. In order to release bound ascorbic acid from calcium phosphate particles to measure the stabilization effect, the pH of each suspension was adjusted to pH 5 with HCl and centrifuged at 3,000 rpm for 10 minutes. The supernatant obtained was measured at 265 nm. As a control, a 10 μg/ml of ascorbic acid solution was also incubated and measured by the same procedures without calcium phosphate particles. The activity of ascorbic acid was calculated by the following formula: The activity of ascorbic acid (%)=(A265nm of the supernatant after incubation/A265nm of the ascorbic acid before incubation)×100 The same procedures were repeated with 10 μm calcium phosphate particles. b. Results

[5] = Tape-stripping analysis of topical application of active-calcium phosphate complexes; format: in vivo; conditions: STAY C50-calcium phosphate particle formulation, human forearm, ten tape strips
Experimental: The purpose of this study was to detect the distribution of actives in the stratum corneum following topical application of the active-calcium phosphate particles • Method: The distribution of STAY C50 within the stratum corneum was assessed by serial tape stripping of the skin to which a STAY C50-calcium phosphate particle formulation was applied. An application site on the forearm of a human subject was marked and 200 μl of the formulation spread by spatula. The site was allowed to dry for 10 minutes and then followed by ten pre-weighed tape stripping using strips of (3 in^2) applied to the application site. STAY C50 was extracted from the tape strips by sonicating the samples in water for 30 minutes and analyzing the samples by HPLC. […] An application site on the forearm of a human subject was marked and 200 μl of the formulation spread by spatula. The site was allowed to dry for 10 minutes and then followed by ten pre-weighed tape stripping using strips of (3 in^2) applied to the application site. Lysozyme was extracted from the tape strips by sonicating the samples in water for 30 minutes and analyzing the samples by HPLC. Lysozyme was detected to a depth of 6 tape strips (FIG. 10). 5. Controlled Slow Release of Active Agents by Franz Cell • Purpose: The purpose of this study was to detect riboflavin from riboflavin attached to calcium phosphate particles. […]

[6] = Influence of pH on binding of Salicylic acid to calcium phosphate particles (UV 297 nm); format: physicochemical
Experimental: • Calcium phosphate particles • Salicylic acid, Fisher Scientific, Part No. A277-500 Methods: • i. 23.2 mg of Salicylic acid was dissolved in 1 ml of ethanol. • ii. 4 g of calcium phosphate particles were suspended in 39.8 ml of water and the pH was adjusted close to the targeted pH with HCl. • iii. 0.2 ml of Salicylic acid solution (23.2 mg/ml) was mixed in the suspension of calcium phosphate particles. • iv. The pH was adjusted to each of the target pH values (11.36, 8.34, 7.47, 7.07, 5.99) with HCl. • v. At each pH, a 4.8 ml sample was taken from the suspension. All the samples were centrifuged separately at 2000×g for 10 min. • vi. The absorbance of supernatant was measured at 297 nm (the detection wavelength for Salicylic acid) by UV spectrophotometer. • vii. […]

[7] = Sodium Tocopheryl Phosphate binding to and release from calcium phosphate particles (UV 286 nm); format: physicochemical
Experimental: • Calcium phosphate particles • Sodium Tocopheryl Phosphate (TPNa), Showa Denko KK • Ethanol, Fisher Scientific, Product No. AC615090020 Methods: • i. 20 mg of TPNa was dissolved in 40 ml of water by gently mixing (0.5 mg/ml). • ii. 3 g of calcium phosphate particles was mixed with 30 ml of TPNa solution at 0.5 mg/ml, and mixed for 30 min. • iii. The binding suspension was centrifuged at 2000×g for 10 min. The supernatant was transferred to new tube, and centrifuge again at 2000×g for 10 min to clarify. The final supernatant was analyzed with an UV spectrophotometer at 286 nm to quantitate free TPNa and calculate the binding. Approximately 100% of TPNa in the binding suspension was attached to calcium phosphate particles. • iv. The pellet of TPNa calcium phosphate complex was re-suspended in 60% ethanol to release the bound TPNa. • v. The release suspension in 60% ethanol was centrifuged at 2000×g for 10 min. The supernatant was analyzed with an UV spectrophotometer at 286 nm to quantitate free TPNa released.

[8] = Argireline binding to calcium phosphate particles with or without sodium lauryl sulfate pretreatment; format: physicochemical
Experimental: • Argireline to calcium phosphate particles was pretreated with sodium lauryl sulfate Materials: • Calcium phosphate particles • Argireline, (Acetyl Hexapeptide-8), Lipotec S.A. • Sodium lauryl sulfate (SLS), Colonial Chemical, Inc. Methods: • i. Argireline was dissolved in water as a 10 mg/ml solution. • ii. Calcium phosphate particles were mixed with 10 ml of 0.1% SLS for 5 min. […] The pellet was re-suspended in 20 ml water, centrifuged at 2000×g for 10 min, and the washing supernatant was discarded. The washing step was repeated twice. The water contained in the pellet was determined. The final pellet was used in the binding study. • iii. Calcium phosphate particles (SLS treated or no SLS treatment) were mixed with water. HCl (or NaOH) was added to adjust the pH of Calcium phosphate particles suspension to targeted pH including neutral and pH˜10. • iv. Argireline stock at 10 mg/ml was added to each binding suspensions to be a final concentration of 0.5 mg/ml. After the suspension was mixed for 30 min, the final pH was measured. • v. The binding suspensions were centrifuged at 2000×g for 10 min in the bench top centrifuge. The supernatants were analyzed with Refractive Index detector connected to the Shimadzu HPLC 20A system to quantify the free Argireline in the solution. A size-exclusion HPLC method was developed to quantify Argireline in the supernatants of the binding mixtures. […] The mobile phase was 100% water, and eluted at a rate of 1 ml/min. The eluent was monitored at 205 nm or by a refractive index detector (Shimadzu, Model No. RID-10A). Argireline was observed as a major peak in the chromatogram with retention time of about 14 min. The quantification of Argireline was achieved by external standard calibration. • vi. The Argireline bound was then calculated by subtracting the amount of Argireline detected in the supernatant from the total initial amount in the binding suspension.

[9] = Franz cell transdermal delivery through pig skin; format: in vitro ADME; conditions: for penetration through skin (riboflavin metabolite in receptor fluid): 8 and 16 hours
Experimental: Controlled Slow Release of Active Agents by Franz Cell • Purpose: The purpose of this study was to detect riboflavin from riboflavin attached to calcium phosphate particles. Methods: • Circular 6 cm^2 discs of full-thickness pig skin were cut from a larger abdominal specimen. Fat was removed from the dermis-side by scissors and the skin was stored at −20° C. until use. The skin was affixed between the two compartments of the glass diffusion cell (Laboratory Glass Apparatus, Model #LG-1084-LPCT). This allowed an exposed skin area of 5 cm^2 over a receptor compartment volume of 4.5 ml. The diffusion cell was maintained at 37° C.
Penetration Conditions • Topical application intervals were 8 and 16 hrs. The cells were covered with parafilm and shielded from light by aluminum wrap. A receptor fluid of phosphate buffered saline (PBS) was spun at 60 rpm.
Applied Formulations • Riboflavin monophosphate-calcium phosphate particles were prepared to deliver 0.35-1.15 mg riboflavin (20-38% suspensions). • Riboflavin monophosphate in PBS was prepared at 1.5 mg/mL to deliver 0.3-0.45 mg riboflavin. • Formulations were applied by pipette in volumes of 50-100 μl. Riboflavin-calcium phosphate complex applications were allowed to air dry and then equal volume of 0.5 M sodium acetate buffer was pipetted onto the application site. […]
Sample Collection • The skin surface, while still retained in the diffusion cell, was washed twice with 1 mL PBS each time. The skin was removed from diffusion cell and dried and analyzed.
Sample Analysis • Washes and Receptor fluid: The approximate volume of the fluids was determined. […] The supernatant was then removed and analyzed by UV spectrometer. If the UV absorbance was saturated (over >2.0), the samples were diluted with water. The UV absorbance value at 370 nm was recorded. • Skin: The skin was minced and mixed with 5 ml of 10% trichloracetic acid solution. […] If the UV absorbance was saturated (over >2.0), samples were diluted with water. The maximum UV absorbance value at 370 nm was recorded.

Optimum pH ([1]; Loading Solvent Water): >8.12
activity of ascorbic acid, 2 um ([4]; 0 hrs): 100%
activity of ascorbic acid, 2 um ([4]; 0.5 hrs): 85%
activity of ascorbic acid, 2 um ([4]; 2 hrs): 59%
activity of ascorbic acid, 2 um ([4]; 3 hrs): 48%
activity of ascorbic acid, 2 um ([4]; 5 hrs): 35%
activity of ascorbic acid, Control ([4]; 0 hrs): 100%
activity of ascorbic acid, Control ([4]; 0.5 hrs): 36%
activity of ascorbic acid, Control ([4]; 2 hrs): 18%
activity of ascorbic acid, Control ([4]; 5 hrs): 0%
Compound: O=C1O[C@H]([C@@H](O)CO)C(O)=C1O [Ascorbic acid]

Optimum pH ([1]; Loading Solvent Ethanol/water): 10
Compound: Oc1ccc(C=Cc2cc(O)cc(O)c2)cc1 [Resveratrol]

Optimum pH ([1]; Loading Solvent Water): 6.7-7.8 and 7.8 and 6.4
Argireline bound ([8]; No pretreatment, pH 7.39): 0.09 mg/g
Argireline bound ([8]; No pretreatment, pH 10.46): 0.05 mg/g
Argireline bound ([8]; SLS treated particles, pH 7.85): 1.19 mg/g
Argireline bound ([8]; SLS treated particles, pH 10.10): 2.15 mg/g
Compound: Acetyl Hexapeptide-8 [Argireline]

Second part, the compound before the results:

Compound: Cc1c(C)c2c(c(C)c1OP(=O)([O-])OC1=C(O)[C@@H]([C@@H](O)CO)OC1=O)CC[C@@](C)(CCC[C@H](C)CCC[C@H](C)CCCC(C)C)O2.[K+] (racemic) [Sepivital, dl-a-tocopheryl 2 L ascorbyl phosphate]
Optimum pH ([1]; Loading Solvent Water): 7

Compound: COc1ccc(-c2ccc3cc(C(=O)O)ccc3c2)cc1C12CC3CC(CC(C3)C1)C2 [Adapalene]
Binding capacity of Adapalene to calcium phosphate particles ([2]; in DMSO): 12.55 mg/g
Binding capacity of Adapalene to calcium phosphate particles ([2]; in ethanol): 0.78 mg/g
Optimum pH ([1]; Loading Solvent DMSO): 7
Optimum pH ([1]; Loading Solvent Ethanol): 11 and 7
saturated solution concentration ([3]; in DMSO): 20.65 mg/mL
saturated solution concentration ([3]; in ethanol): 0.087 mg/mL

Compound: O=C1O[C@H]([C@@H](O)CO)C([O-])=C1OP(=O)([O-])[O-].[Na+].[Na+].[Na+] [STAY-C50, Sodium Ascorbyl Phosphate]
delivery depth in stratum corneum [5]: 10th layer of stratum corneum

Compound: O=C(O)c1ccccc1O [Salicylic acid]
Optimum pH ([1]; Loading Solvent Ethanol/water): 4.03-7.90
Salicylic acid Bound ([6]; pH 5.99): 0 µg/g
Salicylic acid Bound ([6]; pH 7.07): 23.8 µg/g
Salicylic acid Bound ([6]; pH 7.47): 97.5 µg/g
Salicylic acid Bound ([6]; pH 8.34): 660.4 µg/g
Salicylic acid Bound ([6]; pH 11.36): 1141.14 µg/g

Compound: Cc1c(C)c2c(c(C)c1OP(=O)([O-])[O-])CCC(C)(CCCC(C)CCCC(C)CCCC(C)C)O2.[Na+].[Na+] (stereo not drawn) [TPNa, Sodium Tocopheryl Phosphate]
TPNa in the binding suspension attached to calcium phosphate particles ([7]; 0.5 mg/ml TPNa in water): Approximately 100%
integrity of released TPNa (UV spectroscopy) ([7]; released in 60% ethanol): identical to an unbound control

Compound: Hyaluronic acid Sodium salt
Optimum pH ([1]; Loading Solvent Water): 7

Compound: Riboflavin monophosphate
release rate of the active versus aqueous solution ([9]; calcium phosphate particle complex): slower release of the active
penetration through skin (riboflavin metabolite in receptor fluid) ([9]; from aqueous solution (PBS)): penetrated through skin
penetration through skin (riboflavin metabolite in receptor fluid) ([9]; from calcium phosphate particle complex): penetrated through skin
